In ChEMBL document CHEMBL1201862, “PubChem BioAssay data set” (2004):
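In this assay, cells in 96-well plates receive the compound at five concentrations for 48 hours. Endpoints are linearly interpolated between the surrounding concentrations. Abbreviation: GI50, concentration required for 50% inhibition of growth.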 The source made the active and inactive calls. No stated cut-off is given here; in the data, active = GI50 up to about 1.1 µM and inactive = higher.

Assays:
Assay in all cases: NCI-60 cell line screen, 48 h
A498 = tested on: A498
A549 = tested on: A549
ACHN = tested on: ACHN
COLO 205 = tested on: COLO 205
HCT-116 = tested on: HCT-116
HCT-15 = tested on: HCT-15
HL-60 = tested on: HL-60
M14 = tested on: M14
MDA-MB-231 = tested on: MDA-MB-231
MDA-N = tested on: MDA-N
NCI-H23 = tested on: NCI-H23
OVCAR-4 = tested on: OVCAR-4
SF-268 = tested on: SF-268
SK-MEL-28 = tested on: SK-MEL-28
SK-MEL-2 = tested on: SK-MEL-2
SK-MEL-5 = tested on: SK-MEL-5
SK-OV-3 = tested on: SK-OV-3
SR = tested on: SR
UACC-62 = tested on: UACC-62

SMILES	GI50 (A498)	GI50 (A549)	GI50 (ACHN)	GI50 (COLO 205)	GI50 (HCT-116)	GI50 (HCT-15) [µM]	GI50 (HL-60)	GI50 (M14)	GI50 (MDA-MB-231)	GI50 (MDA-N)	GI50 (NCI-H23)	GI50 (OVCAR-4)	GI50 (SF-268)	GI50 (SK-MEL-28)	GI50 (SK-MEL-2)	GI50 (SK-MEL-5)	GI50 (SK-OV-3)	GI50 (SR)	GI50 (UACC-62)
CC(=O)c1c2c(cc3c1CC1(C3)Cc3ccc4c(c3C1=O)CCC4)CCC2 (stereo not given)	> 100 µM (inactive)	21.5 µM (inactive)	65.3 µM (inactive)	11 µM (inactive)	10.8 µM (inactive)	16.1	3.58 µM (inactive)	43 µM (inactive)	24.7 µM (inactive)	13.8 µM (inactive)	34.9 µM (inactive)	23.9 µM (inactive)	> 100 µM (inactive)	57.1 µM (inactive)	34.8 µM (inactive)	13.4 µM (inactive)	> 100 µM (inactive)	4.61 µM (inactive)	44.5 µM (inactive)
SC1CCCN(Cc2ccccc2)C1 (stereo not given)	65.2 µM (inactive)	53.7 µM (inactive)	74.8 µM (inactive)	17.9 µM (inactive)	61.1 µM (inactive)	38.2	34.8 µM (inactive)	20 µM (inactive)	56.5 µM (inactive)	59 µM (inactive)	25.6 µM (inactive)	56.9 µM (inactive)	65.2 µM (inactive)	41.9 µM (inactive)	36 µM (inactive)	18.5 µM (inactive)	> 100 µM (inactive)	27.9 µM (inactive)	44.8 µM (inactive)
C/C(=N\Nc1nc2cccnc2s1)c1ccccn1	> 100 µM (inactive)	0.245 µM (active)	< 0.01 µM (active)	< 0.01 µM (active)	< 0.01 µM (active)	< 0.0218	< 0.01 µM (active)	< 0.01 µM (active)	< 0.01 µM (active)	1.81 µM (inactive)	0.0228 µM (active)	1.07 µM (active)	0.0284 µM (active)	0.364 µM (active)	2.98 µM (inactive)	0.033 µM (active)	0.0902 µM (active)	0.0335 µM (active)	0.0586 µM (active)
COC(=O)CCC(=O)NC1=C(NCc2ccccc2)C(=O)c2ccccc2C1=O	67.9 µM (inactive)	26.2 µM (inactive)	27.4 µM (inactive)	20.4 µM (inactive)	30.3 µM (inactive)	17	21.8 µM (inactive)	18.7 µM (inactive)	23.4 µM (inactive)	16 µM (inactive)	21.3 µM (inactive)	18.5 µM (inactive)	39.8 µM (inactive)	88.3 µM (inactive)	18.8 µM (inactive)	12.1 µM (inactive)	57.3 µM (inactive)	27.9 µM (inactive)	17.3 µM (inactive)
S=C(N/N=C(/c1ccccc1)c1ccccn1)N(Cc1ccccn1)Cc1ccccn1	0.521 µM (active)	0.435 µM (active)	0.0418 µM (active)	< 0.0157 µM (active)	< 0.01 µM (active)	0.102	< 0.0443 µM (active)	0.0323 µM (active)	< 0.0121 µM (active)	1.31 µM (inactive)	0.108 µM (active)	0.507 µM (active)	0.196 µM (active)	1.05 µM (active)	1.28 µM (inactive)	0.358 µM (active)	0.472 µM (active)	0.906 µM (active)	0.338 µM (active)
C=C(C)C1CC[C@@](C)(O)[C@H](C#N)C1 (stereo not given in full)	> 100 µM (inactive)	> 100 µM (inactive)	> 100 µM (inactive)	> 100 µM (inactive)	> 100 µM (inactive)	> 100	> 100 µM (inactive)	> 100 µM (inactive)	> 100 µM (inactive)	> 100 µM (inactive)	> 100 µM (inactive)	> 100 µM (inactive)	> 100 µM (inactive)	> 100 µM (inactive)	> 100 µM (inactive)	> 100 µM (inactive)	> 100 µM (inactive)	> 100 µM (inactive)	> 100 µM (inactive)
COc1ccc(S(=O)(=O)Nc2ccc(-c3csc(N4C(=O)/C(=C/c5cccs5)N=C4c4ccccc4)n3)cc2)cc1Cl	24.3 µM (inactive)	38.9 µM (inactive)	35.4 µM (inactive)	40.6 µM (inactive)	30.9 µM (inactive)	24.9	24.5 µM (inactive)	34.7 µM (inactive)	32.4 µM (inactive)	34.1 µM (inactive)	21.5 µM (inactive)	40.2 µM (inactive)	30.5 µM (inactive)	65.5 µM (inactive)	40.4 µM (inactive)	40.8 µM (inactive)	> 100 µM (inactive)	28.6 µM (inactive)	31.1 µM (inactive)
Cn1c(C(O)C2(c3cccnc3)SCCCS2)cc2ccccc21 (stereo not given)	> 100 µM (inactive)	> 100 µM (inactive)	> 100 µM (inactive)	> 100 µM (inactive)	> 100 µM (inactive)	> 100	50.5 µM (inactive)	89.7 µM (inactive)	> 100 µM (inactive)	> 100 µM (inactive)	47.8 µM (inactive)	67.8 µM (inactive)	> 100 µM (inactive)	> 100 µM (inactive)	> 100 µM (inactive)	37.6 µM (inactive)	> 100 µM (inactive)	55.5 µM (inactive)	88.3 µM (inactive)
CC(C)(C)C1=CC(=C2C=Cc3ccccc3O2)C=C(C(C)(C)C)C1=O	4.39 µM (inactive)	4.16 µM (inactive)	5.51 µM (inactive)	2.18 µM (inactive)	2.76 µM (inactive)	3.13	1.9 µM (inactive)	3.55 µM (inactive)	3.41 µM (inactive)	2.31 µM (inactive)	4.56 µM (inactive)	2.41 µM (inactive)	5.55 µM (inactive)	6.25 µM (inactive)	2.13 µM (inactive)	3.81 µM (inactive)	13.6 µM (inactive)	1.85 µM (inactive)	2.56 µM (inactive)
C=CCc1c(C)nc(C)nc1N/N=C/C=C/c1ccccc1	25.9 µM (inactive)	37.4 µM (inactive)	> 100 µM (inactive)	24.8 µM (inactive)	36.1 µM (inactive)	35.4	33.6 µM (inactive)	31.2 µM (inactive)	> 100 µM (inactive)	29.2 µM (inactive)	27.9 µM (inactive)	0.0435 µM (active)	44.1 µM (inactive)	41 µM (inactive)	36.7 µM (inactive)	20.3 µM (inactive)	55.5 µM (inactive)	22.6 µM (inactive)	20.6 µM (inactive)
C=C1CCCCCCCCCCC1[S+]([O-])c1ccccc1 (stereo not given)	38.6 µM (inactive)	33.3 µM (inactive)	29.8 µM (inactive)	25.6 µM (inactive)	30.5 µM (inactive)	41.7	19.1 µM (inactive)	27.7 µM (inactive)	24.5 µM (inactive)	34 µM (inactive)	58.5 µM (inactive)	54.5 µM (inactive)	27.7 µM (inactive)	50.2 µM (inactive)	> 100 µM (inactive)	29.5 µM (inactive)	38 µM (inactive)	25.2 µM (inactive)	45.4 µM (inactive)
O=C1C=CC(=O)C(N(CCO)CCO)=C1.O=C1C=CC2(O)OCCN(CCO)C2=C1	> 100 µM (inactive)	> 100 µM (inactive)	> 100 µM (inactive)	> 100 µM (inactive)	> 100 µM (inactive)	> 100	> 100 µM (inactive)	> 100 µM (inactive)	> 100 µM (inactive)	> 100 µM (inactive)	> 100 µM (inactive)	> 100 µM (inactive)	> 100 µM (inactive)	> 100 µM (inactive)	> 100 µM (inactive)	> 100 µM (inactive)	> 100 µM (inactive)	34.8 µM (inactive)	> 100 µM (inactive)
CC[C@@]1(O)C(=O)OCc2c1cc1n(c2=O)Cc2c-1nc1ccccc1c2/C=N/NC(=O)C[N+](C)(C)C	7.76 µM (inactive)	1.22 µM (inactive)	0.277 µM (active)	62.4 µM (inactive)	2.3 µM (inactive)	14	0.668 µM (active)	1 µM (active)	> 100 µM (inactive)	9.62 µM (inactive)	0.495 µM (active)	41.2 µM (inactive)	0.45 µM (active)	15.4 µM (inactive)	> 83.6 µM (inactive)	1.5 µM (inactive)	2.1 µM (inactive)	0.0391 µM (active)	0.121 µM (active)
COc1c(O)cc(/C=C/c2cc(O)cc3c2[C@@]2(C(=O)O3)c3c(O)cc(O)cc3OC2c2cccc(O)c2)cc1O (stereo not given in full)	94.6 µM (inactive)	> 100 µM (inactive)	27.4 µM (inactive)	41.2 µM (inactive)	51.6 µM (inactive)	30.5	28 µM (inactive)	95.3 µM (inactive)	> 100 µM (inactive)	39.5 µM (inactive)	81.7 µM (inactive)	19.6 µM (inactive)	62.4 µM (inactive)	35.2 µM (inactive)	94 µM (inactive)	32 µM (inactive)	28.2 µM (inactive)	1.57 µM (inactive)	30.4 µM (inactive)
CCCCCCCCCCOCCOCCOCCOCCCCC(O)CCCCCCCC1=C[C@H](C)OC1=O (stereo not given in full)	13.6 µM (inactive)	9.31 µM (inactive)	11.7 µM (inactive)	15.2 µM (inactive)	9.53 µM (inactive)	12.7	0.863 µM (active)	14.3 µM (inactive)	14.1 µM (inactive)	11.6 µM (inactive)	0.774 µM (active)	12.6 µM (inactive)	10.9 µM (inactive)	12.2 µM (inactive)	12.5 µM (inactive)	0.76 µM (active)	16.5 µM (inactive)	0.671 µM (active)	13.2 µM (inactive)
